Data: ChEMBL document CHEMBL1152582, “Discovery of trans-N-[1-(2-fluorophenyl)-3-pyrazolyl]-3-oxospiro[6-azaisobenzofuran-1(3H),1'-cyclohexane]-4'-carboxamide, a potent and orally active neuropeptide Y Y5 receptor antagonist” (Bioorg Med Chem, 2009)
Activity calls are given as the source filed them. No cut-off for these calls is given here.

Legend:
[1] = molecular target: T1, Neuropeptide Y receptor type 5 (Homo sapiens, UniProt Q15761)
T1 sequence (Q15761 whole entry): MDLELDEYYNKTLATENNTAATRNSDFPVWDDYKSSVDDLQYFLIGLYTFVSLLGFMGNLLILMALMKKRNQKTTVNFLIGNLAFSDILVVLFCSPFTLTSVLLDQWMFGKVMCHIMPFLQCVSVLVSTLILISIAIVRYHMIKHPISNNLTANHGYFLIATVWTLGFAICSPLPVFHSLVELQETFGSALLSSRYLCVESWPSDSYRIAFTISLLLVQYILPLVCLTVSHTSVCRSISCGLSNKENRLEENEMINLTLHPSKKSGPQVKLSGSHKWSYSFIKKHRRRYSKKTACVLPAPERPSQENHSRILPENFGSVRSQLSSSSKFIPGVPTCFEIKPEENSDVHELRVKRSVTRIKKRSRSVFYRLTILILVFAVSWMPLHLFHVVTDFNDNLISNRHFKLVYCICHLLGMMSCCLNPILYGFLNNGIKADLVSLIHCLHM
Description: Displacement of [125I]PYY from human recombinant Y5 receptor

Brain = conditions: rat, in vivo, po, 10 mg/kg, 2 h
Description: Drug level in rat brain at 10 mg/kg, po after 2 hrs

in vivo [2] = conditions: rat, plasma, po, 10 mg/kg
Description: Plasma concentration in rat at 10 mg/kg, po after 2 hrs

physchem = conditions: buffer, pH 7.4
Description: Lipophilicity, log D at pH 7.4

in vivo [3] = conditions: rat, CSF, po, 10 mg/kg
Description: Drug level in rat CSF at 10 mg/kg, po after 2 hrs

in vitro = conditions: rat, hepatocytes
Description: Clearance in rat hepatocytes

[4] = molecular target: T2, Neuropeptide Y receptor type 5 (Rattus norvegicus, UniProt Q63634)
T2 sequence (Q63634 whole entry): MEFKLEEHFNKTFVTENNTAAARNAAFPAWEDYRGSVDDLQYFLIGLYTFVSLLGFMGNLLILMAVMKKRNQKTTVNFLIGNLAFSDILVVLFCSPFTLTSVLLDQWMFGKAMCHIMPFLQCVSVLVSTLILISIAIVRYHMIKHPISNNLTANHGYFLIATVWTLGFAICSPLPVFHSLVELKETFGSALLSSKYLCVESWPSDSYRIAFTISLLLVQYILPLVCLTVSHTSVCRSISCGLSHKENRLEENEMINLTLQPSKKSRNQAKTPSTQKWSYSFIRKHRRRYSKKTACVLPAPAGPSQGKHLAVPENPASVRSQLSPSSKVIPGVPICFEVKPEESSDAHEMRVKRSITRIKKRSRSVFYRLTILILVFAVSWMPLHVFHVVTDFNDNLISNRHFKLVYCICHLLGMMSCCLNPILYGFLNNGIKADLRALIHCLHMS
Description: Inhibition of rat Y5 receptor

in vivo [5] = conditions: rat, CSF/plasma, po, 10 mg/kg
Description: Ratio of drug level in CSF to plasma in rat at 10 mg/kg, po after 2 hrs

Rattus norvegicus [6] = assay: Inhibition of [D-Trp34]NPY-induced food intake in Sprague-Dawley rat assessed as minimum effective dose treated po 2 hrs before [D-Trp34]NPY challenge; type: functional; conditions: read-out: MED
[7] = Ratio of drug level in brain to plasma in rat at 10 mg/kg, po after 2 hrs; type: ADME, organism-based; set-up: dose 10 mg/kg, route oral; conditions: read-out: BPR
CYP3A = assay: Inhibition of CYP3A at 10 uM; type: ADME
Rattus norvegicus [8] = assay: Inhibition of [D-Trp34]NPY-induced food intake in Sprague-Dawley rat at 3 mg/kg, po treated 2 hrs before [D-Trp34]NPY challenge; type: functional
Mus musculus [9] = organism: Mus musculus; assay: Ex vivo Y5 receptor occupancy in mouse brain at plasma level of 10 to 20 ng/ml; type: functional, organism-based
Rattus norvegicus [10] = assay: Inhibition of [D-Trp34]NPY-induced food intake in Sprague-Dawley rat at 1 mg/kg, po treated 2 hrs before [D-Trp34]NPY challenge; type: functional
Rattus norvegicus [11] = assay: Inhibition of [D-Trp34]NPY-induced food intake in Sprague-Dawley rat at 10 mg/kg, po treated 2 hrs before [D-Trp34]NPY challenge; type: functional
Rattus norvegicus [12] = assay: Inhibition of NPY-induced food intake in Sprague-Dawley rat at 10 mg/kg, po treated 2 hrs before [D-Trp34]NPY challenge; type: functional
Rattus norvegicus [13] = assay: Inhibition of [D-Trp34]NPY-induced food intake in Sprague-Dawley rat at 0.3 mg/kg, po treated 2 hrs before [D-Trp34]NPY challenge; type: functional
Mus musculus [14] = organism: Mus musculus; assay: Ex vivo Y5 receptor occupancy in mouse brain at plasma level of 100 to 200 ng/ml; type: functional, organism-based

Row | IC50 [1] | Drug uptake (Brain) | concentration at 2 h (in vivo [2]) | logD (physchem) | concentration at 2 h (in vivo [3]) | CLhep predicted (in vitro) | Structure (SMILES) | further results
1 | 26 nM |  |  |  |  |  | O=C1O[C@]2(CC[C@H](C(=O)Nc3cc(-c4ccccc4)[nH]n3)CC2)c2ncccc21 | 
2 | 2.7 nM | 0.5 nmol/g | 6100 nM | 3.16 | 59 nM | 3 mL/min/kg | O=C1O[C@]2(CC[C@H](C(=O)Nc3cc(-c4ccccc4)[nH]n3)CC2)c2cnccc21 | 
3 | 1.5 nM |  |  | > 4 |  | 35 mL/min/kg | O=C1O[C@]2(CC[C@H](C(=O)Nc3cnc(-c4ccccc4)cn3)CC2)c2ccccc21 | 
4 | 2.1 nM |  | 20 nM |  |  | 14 mL/min/kg | O=C1O[C@]2(CC[C@H](C(=O)Nc3ccc(-c4ccccc4)cn3)CC2)c2cnccc21 | 
5 | 2.4 nM |  |  | 3.7 |  | 36 mL/min/kg | O=C1O[C@]2(CC[C@H](C(=O)Nc3cc(-c4ccccc4)on3)CC2)c2ncccc21 | 
6 | 2.1 nM |  | 290 nM |  |  | 6 mL/min/kg | O=C1O[C@]2(CC[C@H](C(=O)Nc3cc(-c4ccccc4)on3)CC2)c2cnccc21 | 
7 | 4.2 nM | 2.5 nmol/g | 3750 nM | 3.1 | 174 nM | 18 mL/min/kg | O=C1O[C@]2(CC[C@H](C(=O)Nc3cnc(-c4ccccc4)cn3)CC2)c2cccnc21 | 
8 | 4.4 nM | 2.79 nmol/g | 6460 nM | 2.8 | 416 nM | 4 mL/min/kg | O=C1O[C@]2(CC[C@H](C(=O)Nc3ccn(-c4ccccc4)n3)CC2)c2cccnc21 | IC50 [4]: 1.7 nM; Kp at 2 h (in vivo [5]): 0.15; minimal effective dose (Rattus norvegicus [6]): 3 mg/kg
9 | 1.2 nM |  | 190 nM |  |  | 12 mL/min/kg | O=C1O[C@]2(CC[C@H](C(=O)Nc3csc(-c4ccccc4)n3)CC2)c2cnccc21 | 
10 | 2.3 nM | 3.13 nmol/g | 2940 nM | 3.1 | 276 nM | 20 mL/min/kg | O=C1O[C@]2(CC[C@H](C(=O)Nc3ccn(-c4ccccc4)n3)CC2)c2cnccc21 | IC50 [4]: 2.2 nM; Kp at 2 h (in vivo [5]): 0.088; Kp at 2 h [7]: 1.06; minimal effective dose (Rattus norvegicus [6]): > 10 mg/kg
11 | 1.3 nM | 0.5 nmol/g | 6680 nM | 2.9 | 91 nM | 1 mL/min/kg | O=C1O[C@]2(CC[C@H](C(=O)Nc3cnn(-c4ccccc4)c3)CC2)c2cccnc21 | IC50 [4]: 4.7 nM; Kp at 2 h (in vivo [5]): 0.18; minimal effective dose (Rattus norvegicus [6]): 10 mg/kg
12 | 2.9 nM |  |  |  |  | 9 mL/min/kg | O=C1O[C@]2(CC[C@H](C(=O)Nc3cc(-c4ccccc4)n[nH]3)CC2)c2ccncc21 | inhibition at 10 µM (CYP3A): > 50%
13 | 0.92 nM | 1.24 nmol/g | 890 nM | 3.2 | 81 nM | 7 mL/min/kg | O=C1O[C@]2(CC[C@H](C(=O)Nc3ccn(-c4ccc(F)cc4)n3)CC2)c2cnccc21 | IC50 [4]: 2.1 nM; minimal effective dose (Rattus norvegicus [6]): 1 mg/kg
14 |  |  |  |  |  | 39 mL/min/kg | O=C1O[C@]2(CC[C@H](C(=O)Nc3ncc(-c4ccccc4)cn3)CC2)c2cnccc21 | 
15 | 0.89 nM | 1.33 nmol/g | 680 nM | 3.4 | 42 nM | 21 mL/min/kg | O=C1O[C@]2(CC[C@H](C(=O)Nc3cnn(-c4ccccc4)n3)CC2)c2cnccc21 | Kp at 2 h (in vivo [5]): 0.032
16 |  | 2.15 nmol/g | 1590 nM | 3.2 | 152 nM | 9 mL/min/kg | O=C1O[C@]2(CC[C@H](C(=O)Nc3ccn(-c4ccccc4F)n3)CC2)c2cnccc21 [MK-0557] | inhibition in vivo at 3 mg/kg (Rattus norvegicus [8]): 61%; IC50 [4]: 2.1 nM; Activity (Mus musculus [9]): Active; inhibition in vivo at 1 mg/kg (Rattus norvegicus [10]): 43%; minimal effective dose (Rattus norvegicus [6]): 3 mg/kg; inhibition in vivo at 10 mg/kg (Rattus norvegicus [11]): 83%; inhibition in vivo at 10 mg/kg (Rattus norvegicus [12]): 22%; inhibition in vivo at 0.3 mg/kg (Rattus norvegicus [13]): 27%
17 | 3.9 nM |  |  |  |  | 39 mL/min/kg | O=C1O[C@]2(CC[C@H](C(=O)Nc3cnc(-c4ccccc4)cn3)CC2)c2ncccc21 | 
18 | 2.4 nM |  |  |  |  | 42 mL/min/kg | O=C1O[C@]2(CC[C@H](C(=O)Nc3cnc(-c4ccccc4)cn3)CC2)c2ccncc21 | inhibition at 10 µM (CYP3A): > 50%
19 |  |  |  |  |  | 49 mL/min/kg | O=C1O[C@]2(CC[C@H](C(=O)Nc3ncc(-c4ccccc4)cn3)CC2)c2cccnc21 | 
20 |  |  |  |  |  |  | O=C1OC2(CCC(C(=O)Nc3cnc(-c4ccccc4)cn3)CC2)c2ccccc21 (configuration not stated) | IC50 [4]: 2.5 nM; Activity (Mus musculus [14]): Active; minimal effective dose (Rattus norvegicus [6]): > 10 mg/kg
21 | 2.2 nM | 0.39 nmol/g | 1520 nM |  | 45 nM | < 1 mL/min/kg | O=C1O[C@]2(CC[C@H](C(=O)Nc3cnn(-c4ccccc4)c3)CC2)c2cnccc21 | Kp at 2 h (in vivo [5]): 0.115
22 |  |  |  |  |  | 49 mL/min/kg | O=C1O[C@]2(CC[C@H](C(=O)Nc3ncc(-c4ccccc4)cn3)CC2)c2ncccc21 | 
23 | 5.4 nM |  |  |  |  | 2 mL/min/kg | O=C1O[C@]2(CC[C@H](C(=O)Nc3cc(-c4ccccc4)[nH]n3)CC2)c2cccnc21 | 
24 |  |  |  |  |  | 42 mL/min/kg | O=C1O[C@]2(CC[C@H](C(=O)Nc3ncc(-c4ccccc4)cn3)CC2)c2ccncc21 | inhibition at 10 µM (CYP3A): > 50%
25 | 2.2 nM |  |  | 3.39 |  | 36 mL/min/kg | O=C1O[C@]2(CC[C@H](C(=O)Nc3cnc(-c4ccccc4)cn3)CC2)c2cnccc21 | 
26 | 2 nM | 1.36 nmol/g | 1090 nM | 3.4 | 77 nM | 10 mL/min/kg | O=C1O[C@]2(CC[C@H](C(=O)Nc3ccn(-c4cccc(F)c4)n3)CC2)c2cnccc21 | 
